Test results as given in PubChem BioAssay (NCI).
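Assay format: 96-well plates, 48-hour exposure. Definition used: TGI = concentration required for complete inhibition of growth.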

Key:
Experiment in all cases: DTP human tumour cell line panel, 48 h
UACC-62 melanoma = tested on: UACC-62 melanoma
MDA-MB-231 breast = tested on: MDA-MB-231 breast
DU-145 prostate = tested on: DU-145 prostate
OVCAR-8 ovarian = tested on: OVCAR-8 ovarian
RXF 393 renal = tested on: RXF 393 renal
HS 578T breast = tested on: HS 578T breast
OVCAR-4 ovarian = tested on: OVCAR-4 ovarian
M14 melanoma = tested on: M14 melanoma
HT29 colon = tested on: HT29 colon
PC-3 prostate = tested on: PC-3 prostate
UACC-257 melanoma = tested on: UACC-257 melanoma
EKVX NSCLC = tested on: EKVX NSCLC
ACHN renal = tested on: ACHN renal
SF-268 CNS = tested on: SF-268 CNS
SNB-19 CNS = tested on: SNB-19 CNS
A498 renal = tested on: A498 renal
SF-295 CNS = tested on: SF-295 CNS
SW-620 colon = tested on: SW-620 colon
MDA-N = tested on: MDA-N
OVCAR-5 ovarian = tested on: OVCAR-5 ovarian
SK-MEL-28 melanoma = tested on: SK-MEL-28 melanoma
KM12 colon = tested on: KM12 colon
NCI-H522 lung = tested on: NCI-H522 lung
SK-MEL-2 melanoma = tested on: SK-MEL-2 melanoma
MALME-3M melanoma = tested on: MALME-3M melanoma
CAKI-1 renal = tested on: CAKI-1 renal
T-47D breast = tested on: T-47D breast
BT-549 breast = tested on: BT-549 breast
NCI-H460 lung = tested on: NCI-H460 lung
MOLT-4 leukemia = tested on: MOLT-4 leukemia
SN12C renal = tested on: SN12C renal
MDA-MB-435 = tested on: MDA-MB-435
HCT-15 colon = tested on: HCT-15 colon
A549 NSCLC = tested on: A549 NSCLC
K-562 leukemia = tested on: K-562 leukemia
UO-31 renal = tested on: UO-31 renal
NCI-H23 lung = tested on: NCI-H23 lung
SNB-75 CNS = tested on: SNB-75 CNS
SR leukemia = tested on: SR leukemia
NCI-H226 lung = tested on: NCI-H226 lung
RPMI-8226 leukemia = tested on: RPMI-8226 leukemia
HOP-92 NSCLC = tested on: HOP-92 NSCLC
LOX IMVI melanoma = tested on: LOX IMVI melanoma
NCI/ADR-RES ovarian = tested on: NCI/ADR-RES ovarian
IGROV1 ovarian = tested on: IGROV1 ovarian
SF-539 CNS = tested on: SF-539 CNS
OVCAR-3 ovarian = tested on: OVCAR-3 ovarian
U251 CNS = tested on: U251 CNS
TK-10 renal = tested on: TK-10 renal
SK-MEL-5 melanoma = tested on: SK-MEL-5 melanoma
786-0 renal = tested on: 786-0 renal
COLO 205 colon = tested on: COLO 205 colon
HCC-2998 colon = tested on: HCC-2998 colon
HL-60(TB) leukemia = tested on: HL-60(TB) leukemia
HOP-62 NSCLC = tested on: HOP-62 NSCLC
HCT-116 colon = tested on: HCT-116 colon
SK-OV-3 ovarian = tested on: SK-OV-3 ovarian
CCRF-CEM leukemia = tested on: CCRF-CEM leukemia
MCF7 breast = tested on: MCF7 breast

Measured: TGI

C/C(=N\NC(=S)N1CCCCC1)c1cccc(C)n1
4.23 µM: SF-268 CNS
12.1 µM: UACC-257 melanoma | SN12C renal | OVCAR-3 ovarian
51.6 µM: OVCAR-4 ovarian
1.19 µM: 786-0 renal
10.7 µM: NCI-H23 lung
16.8 µM: MDA-MB-435
21.8 µM: HCC-2998 colon
2.67 µM: ACHN renal
13.7 µM: COLO 205 colon
2.22 µM: DU-145 prostate
20.3 µM: MDA-N
12.8 µM: IGROV1 ovarian
> 100 µM: HS 578T breast | MOLT-4 leukemia | SR leukemia | RPMI-8226 leukemia
0.334 µM: NCI-H460 lung
16.9 µM: T-47D breast
0.413 µM: SF-539 CNS
2.13 µM: MALME-3M melanoma
21.3 µM: TK-10 renal
6.19 µM: SNB-75 CNS
11.5 µM: U251 CNS
0.607 µM: A498 renal
21.6 µM: HCT-15 colon
12.4 µM: CAKI-1 renal
22.4 µM: SK-MEL-2 melanoma
36.9 µM: SK-MEL-28 melanoma
11.3 µM: HOP-92 NSCLC | LOX IMVI melanoma
> 73.8 µM: K-562 leukemia
18.3 µM: SW-620 colon
0.4 µM: NCI-H226 lung
17.5 µM: KM12 colon
10.6 µM: NCI-H522 lung | A549 NSCLC
21.1 µM: OVCAR-5 ovarian
5.5 µM: BT-549 breast
0.394 µM: M14 melanoma
0.352 µM: UACC-62 melanoma
16.2 µM: HT29 colon
16.5 µM: MDA-MB-231 breast
> 36 µM: SNB-19 CNS
0.258 µM: NCI/ADR-RES ovarian
> 33.4 µM: SF-295 CNS
14.4 µM: RXF 393 renal
2.1 µM: OVCAR-8 ovarian
1.53 µM: UO-31 renal
31.2 µM: EKVX NSCLC
19.7 µM: PC-3 prostate
0.449 µM: SK-MEL-5 melanoma

CCOC(=O)c1c(N2CCCC2)ncn(-c2ccccc2)c1=S
not listed: MDA-MB-231 breast | CAKI-1 renal | NCI-H23 lung | MCF7 breast
> 100 µM: all other assays above

COc1ccc(/C=c2\[nH]c3nc(=O)c(N4CCOCC4)c(N)n3c2=O)cc1
64.5 µM: SNB-75 CNS
not listed: UACC-62 melanoma | PC-3 prostate | SK-MEL-2 melanoma | BT-549 breast | NCI-H460 lung | OVCAR-3 ovarian | HOP-62 NSCLC
> 100 µM: all other assays above

COc1cc2nc(-c3ccc4ccccc4c3)[nH]c(=O)c2cc1OC
84.3 µM: HOP-62 NSCLC
97.2 µM: SNB-19 CNS
58.3 µM: SNB-75 CNS
not listed: SW-620 colon | SK-MEL-28 melanoma | MDA-MB-435 | SF-539 CNS | U251 CNS | TK-10 renal
> 100 µM: all other assays above
